Like-named read-outs stand apart in the source and are kept apart here.

The assay concerns PGE2 formation in normal human epidermal keratinocytes (NHEK). The experiment in a line: Inhibition of PGE2 formation in irritated keratinocyte cultures (PGE2 immunoassay). The assay is classed as cell-based. The note with it: 24 h; for inhibition at 50 µM: Homo sapiens, NHEK, read-out: relative inhibition in % of PGE2 formation in keratinocyte cultures at 50 μM; for relative inhibition in % of PGE2 formation in keratinocyte cultures at μM: column head prints only 'μM' (method: 50 μM or 10 μM), calcimycin 2.5 μM. As to the method:
A confluent culture was trypsinated and adjusted to a density of 5×10^4 cells/ml. The cells were then seeded in the same medium but with only 1% fetal calf serum in 24 well plates and cultivated for a period of 48 h. A model irritating agent was then applied to the cells by adding calcimycin to a final level of 2.5 μM. The individual compounds, as listed below, dissolved in DMSO were added simultaneously. The final concentration of the compounds was 50 μM or 10 μM, the final DMSO concentration was adjusted to 1% (v/v). Parallel treatments received no calcimycin (non-irritated control) or calcimycin without compounds according to the present invention (irritated control). The DMSO concentration was adjusted to 1% in all these control treatments. […] The prostaglandin levels in treated cell cultures were compared to the irritated and non-irritated control cultures in order to determine the relative inhibition of PGE2 formation.

The mark [1] stands for this setting: 50 μM compound, irritated with calcimycin 2.5 μM, 1% DMSO.

Broadly, the inhibition is the drop in the measured response relative to a control, in per cent. Regarding `CCOc1ccc2ccccc2c1` [NEROLINE ™ CRIST, 2-ethoxynaphthalene], the inhibition at 50 µM under setting [1] was found to be 83%. In addition, the “relative inhibition in % of PGE2 formation in keratinocyte cultures at μM” value (“relative inhibition in %” below) (1% DMSO) amounted to 50.2%.
As for `CCOc1cc(COC)ccc1O` [METHYL DIANTILIS ®, 2-Ethoxy-4-(methoxymethyl)phenol], the “relative inhibition in %” value (1% DMSO) was 88.2%.
Regarding `O=C(C=Cc1ccccc1)OCCc1ccccc1` [Phenethyl cinnamate], under setting [1], the inhibition at 50 µM turned out to be 91.7%. For the same molecule, the “relative inhibition in %” value (1% DMSO) is recorded as 93.6%.
Take `CC(C)COC(=O)c1ccccc1` [Isobutyl benzoate]: the inhibition at 50 µM under setting [1] stood at 52.5%.
The same measure, in the same setting: the figure for `O=C(C=Cc1ccccc1)OCC=Cc1ccccc1` [Cinnamyl cinnamate] is 64%; for `CC(C)Cc1ccc(CC(C)C=O)cc1` (stereo not drawn) [SILVIAL ®, 2-Methyl-3-(4-(2-methylpropyl)phenyl)propanal] it is 62.7%.
`CC=C(C)C(=O)OCc1ccccc1` [TIGLATE BENZYLE, benzyl 2-methylbut-2-enoate]: under setting [1], the inhibition at 50 µM stood at 72.4%. In addition, the “relative inhibition in %” value (1% DMSO) is 50.2%.
For the molecule `CCOc1cc(COC(C)C)ccc1O` [PROPYL DIANTILIS, 2-Ethoxy-4-(isopropoxymethyl)phenol], the inhibition at 50 µM worked out at 90.9%. The “relative inhibition in %” value (1% DMSO) is 95.1%.
In the case of `CC(C)C(=O)OCCc1ccccc1` [Phenethyl isobutyrate], the inhibition at 50 µM under setting [1] came to 44.8%.
Consider `N#CC(=C1CCCCC1)c1ccccc1` [PEONILE ®, 2-cyclohexylidene-2-phenylacetonitrile], for which, under setting [1], the inhibition at 50 µM is 93.3%. Moreover, the “relative inhibition in %” value (1% DMSO) came out at 92.4%.
The like results for `N#CC(=C1CCCC1)c1ccccc1` [2-Cyclopentylidene-2-phenylacetonitrile] were, in that order, 80.8% and 71.1%.
For `O=C(OC1CCCCC1)c1ccccc1O` [Cyclohexyl salicylate, cyclohexyl 2-hydroxybenzoate], in that order: 97.4% and 76.6%.
For `CCCCCOC(=O)c1ccccc1O` [Amyl salicylate, pentyl 2-hydroxybenzoate], in that order: 89.8% and 73.5%.
As for `CC(C)(C)c1ccc(CCC=O)cc1` [BOURGEONAL ™, 3-(4-tert-butylphenyl)propanal], the inhibition at 50 µM under setting [1] worked out at 65%.
The same measure, in the same setting: in the case of `CCC(C)C(=O)OCCc1ccccc1` (stereo not drawn) [ANATOLYL ™, phenethyl 2-methylbutanoate] it was 50.5%.
Still for that read-out and setting: in the case of `CC(=O)OCC=Cc1ccccc1` [Cinnamyl acetate] it was 47.8%.
`CC(C=O)Cc1ccc(C(C)C)cc1` (stereo not drawn) [CYCLAMEN ALDEHYDE ™, 2-Methyl-3-(4-isopropylphenyl)propanal]: the inhibition at 50 µM under setting [1] was determined as 82%. Where the note is “1% DMSO”, the “relative inhibition in %” value is 32%.
Consider `CC=Cc1ccc(OC)cc1` [ANETHOLE, 1-methoxy-4-(prop-1-enyl)benzene], for which the inhibition at 50 µM under setting [1] was 51%.
Still for that read-out and setting: the figure for `O=C(OCCc1ccccc1)c1ccccc1O` [Phenethyl salicylate] is 50.9%; for `CC(C)(C)C(=O)OCCc1ccccc1` [CENTIFOLYL ™, phenethyl pivalate] it is 39%.
Turning to `COc1ccc(CC2CC2)cc1` [TOSCANOL ®, 1-(cyclopropylmethyl)-4-methoxybenzene], the inhibition at 50 µM under setting [1] stood at 56.7%.
On to `CCCCCCCC1CCCC1=O` (stereo not drawn) [ALISMONE ™, 2-heptylcyclopentanone], for which, under setting [1], the inhibition at 50 µM was 92.4%. For the same molecule, for the setting “1% DMSO”, the “relative inhibition in %” value came to 47%.
For `CCCCCCOC(=O)c1ccccc1O` [n-Hexyl salicylate], in that order: 82.9% and 91.6%.
The like results for `CC(C)COC(=O)c1ccccc1O` [Isobutyl salicylate, isobutyl 2-hydroxybenzoate] were, in that order, 69.1% and 73.1%.
`CC/C=C\CCOC(=O)c1ccccc1O` [cis-3-Hexen-1-yl salicylate]: the inhibition at 50 µM under setting [1] came to 94.8%. Also, the “relative inhibition in %” value (1% DMSO) came out at 81.4%.
For `CCC(CC)=C(C#N)c1ccccc1` [3-Ethyl-2-phenylpent-2-enenitrile], in that order: 73.2% and 63.9%.
Regarding `O=C(OCCc1ccccc1)c1ccccc1` [Phenethyl benzoate], the inhibition at 50 µM under setting [1] turned out to be 92.4%. The “relative inhibition in %” value (1% DMSO) worked out at 56.9%.

The values are drawn from patent US9440097B2, “Organic compounds” (Givaudan SA, priority 2005, dated 2016).
